The Kinase Knowledgebase extract (Sharma et al. 2016)

Target: CDK2 (UniProt P24941)
Assay: Enzyme Assay

IC50	SMILES
24 nM	O=c1ccc2cnc(Nc3ccc(N4CCNCC4)cc3)nc2n1C1CCCC1
59 nM	Cc1cc2cnc(Nc3ccc(N4CCNCC4)cc3)nc2n(C2CCCC2)c1=O
80 nM	O=c1c(Br)cc2cnc(Nc3ccccc3)nc2n1C1CCCC1
1330 nM	Cc1c(Br)c(=O)n(C2CCCC2)c2nc(Nc3ccc(N4CCNC(C)(C)C4)cc3)ncc12
139 nM	O=c1c(F)cc2cnc(Nc3ccc(N4CCNCC4)cc3)nc2n1C1CCCC1
142 nM	CCc1cc2cnc(Nc3ccc(N4CCNCC4)cc3)nc2n(C2CCCC2)c1=O
> 5000 nM	O=c1c(Cc2ccccc2)cc2cnc(Nc3ccc(N4CCNCC4)cc3)nc2n1C1CCCC1
84 nM	CC(C)n1c(=O)ccc2cnc(Nc3ccc(N4CCNCC4)cc3)nc21
> 5000 nM	CCOCCOc1cc2cnc(Nc3ccc(N4CCNCC4)cc3)nc2n(C2CCCC2)c1=O
179 nM	CCc1cc2cnc(Nc3ccc(N4CCC(O)CC4)cc3)nc2n(C2CCCC2)c1=O
5950 nM	CCOC(=O)c1cc2cnc(Nc3ccc(N4CCNCC4)cc3)nc2n(C2CCCC2)c1=O
119 nM	O=c1ccc2cnc(Nc3ccc(N4CCNCC4)cc3)nc2n1C1CCCCC1
3150 nM	CC(C)COc1cc2cnc(Nc3ccc(N4CCNCC4)cc3)nc2n(C2CCCC2)c1=O
205 nM	CCOCCc1cc2cnc(Nc3ccc(N4CCNCC4)cc3)nc2n(C2CCCC2)c1=O
556 nM	CC(=O)c1cc2cnc(Nc3ccc(N4CCNCC4)cc3)nc2n(C2CCCC2)c1=O
233 nM	CC(=O)c1c(C)c2cnc(Nc3ccc(N4CCNCC4)cc3)nc2n(C2CCCC2)c1=O
95 nM	Nc1cc2cnc(Nc3ccc(N4CCNCC4)cc3)nc2n(C2CCCC2)c1=O
1860 nM	Cc1c(Br)c(=O)n(C2CCCC2)c2nc(Nc3ccc(N4CC(C)NC(C)C4)cc3)ncc12 (stereo not drawn)
